Experimental data reported in patent EP1320377B1, “HLA BINDING PEPTIDES AND THEIR USES” (Epimmune Inc., priority 2000, dated 2011).

Target: B*0702 (Homo sapiens, UniProt P01889)
Assay: Class I molecular binding assay (peptide binding to purified HLA class I molecule)
Conditions: binding value of the peptide for HLA allele B*0702; kind of value and unit not given

B*0702: 0.1800
Sequence: SPALNKMFBQI [Peptide 34.0397]
